Measurements reported in patent US6355799B1, “Substituted benzene compounds, process for their preparation, and herbicidal and defoliant compositions containing them” (ISK Americas Incorporated, priority 1997, dated 2002).

Tests used:
Type in all cases: in vivo
[1] = test system: velvetleaf (Abutilon theophrasti, ABUTH); test: Pre-emerge test, greenhouse herbicide activity screening; settings: pre-emerge, rated 14 days after application, 0 = no damage, 100 = complete death
Outline: (§1)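 Plants grown in 10 cm pots of sandy loam mix received acetone-dissolved compounds through a moving flat-fan nozzle. Doses ranged from 15 to 1000 g ai/ha. Pre-emerge pots were seeded one day earlier, post-emerge pots 8–21 days earlier. Fourteen days on, each pot was graded 0–100 for damage.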

[2] = test system: sicklepod (Cassia obtusifolia, CASOB); test: as above; settings: pre-emerge, rated 14 days after application, 0 = no damage, 100 = complete death
Outline: as §1

[3] = test system: common ragweed (Ambrosia artemisizfolia L., AMBEL); test: as above; settings: pre-emerge, rated 14 days after application, 0 = no damage, 100 = complete death
Outline: as §1

[4] = test system: large crabgrass (Digitaria sanguinalis, DIGSA); test: as above; settings: pre-emerge, rated 14 days after application, 0 = no damage, 100 = complete death
Outline: as §1

[5] = test system: johnsongrass (Sorghum halepense, SORHA); test: as above; settings: pre-emerge, rated 14 days after application, 0 = no damage, 100 = complete death
Outline: as §1

[6] = test system: barnyardgrass (Echinochloa crus-galli, ECHCG); test: as above; settings: pre-emerge, rated 14 days after application, 0 = no damage, 100 = complete death
Outline: as §1

[7] = test system: ivyleaf morningglory (Ipomoea hederacea, IPOHE); test: as above; settings: pre-emerge, rated 14 days after application, 0 = no damage, 100 = complete death
Outline: as §1

[8] = test system: green foxtail (Setaria viridis, SETVI); test: as above; settings: pre-emerge, rated 14 days after application, 0 = no damage, 100 = complete death
Outline: as §1

[9] = test system: lambsquarters (Chenopodium album, CHEAL); test: as above; settings: pre-emerge, rated 14 days after application, 0 = no damage, 100 = complete death
Outline: as §1

[10] = test system: field corn (Zea mays L., var. Dekalb 535, CORN); test: Post-emerge test, crop safety; settings: phytotoxicity rating 0-100 (0 no damage, 100 complete death), 14 days after application
Outline: (§2)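 Each test used a mechanized track sprayer delivering 187 l/ha of acetone solution at 15–1000 g ai/ha. Post-emerge foliage at 2–3 leaves was treated with added 0.25% v/v non-ionic surfactant and bottom-watered only. Injury was assessed on day 14, where 100 means total kill.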

[11] = test system: upland rice (Oryza sp., var. Tebonnet, RICE); test: Post-emerge test, crop safety; settings: phytotoxicity rating 0-100 (0 no damage, 100 complete death), 14 days after application
Outline: as §2

[12] = test system: redroot pigweed (Amaranthus retroflexus, AMARE); test: Pre-emerge test, greenhouse herbicide activity screening; settings: pre-emerge, rated 14 days after application, 0 = no damage, 100 = complete death
Outline: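 Visual ratings on a 0-100 scale (0 no damage, 100 all plants dead) were taken at 14 days after treatment. Rates of 15-1000 g ai/ha in acetone, 187 l/ha, were sprayed onto soil one day after planting (pre-emerge) or onto 2-3 leaf plants with 0.25% v/v surfactant (post-emerge).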

[13] = test system: velvetleaf (Abutilon theophrasti, ABUTH); test: Post-emerge test, greenhouse herbicide activity screening; settings: phytotoxicity rating 0-100 (0 no damage, 100 complete death), 14 days after application
Outline: (§3)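 Compounds in acetone were track-sprayed at 15–1000 g ai/ha: pre-emergence onto soil sown the previous day, then top-watered to incorporate and later bottom-watered; post-emergence onto 2–3 leaf plants with 0.25% v/v surfactant, bottom-watered only. Ratings on a 0–100 phytotoxicity scale were taken at day 14.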

[14] = test system: sicklepod (Cassia obtusifolia, CASOB); test: as above; settings: phytotoxicity rating 0-100 (0 no damage, 100 complete death), 14 days after application
Outline: as §3

[15] = test system: common ragweed (Ambrosia artemisizfolia L., AMBEL); test: as above; settings: phytotoxicity rating 0-100 (0 no damage, 100 complete death), 14 days after application
Outline: as §3

[16] = test system: large crabgrass (Digitaria sanguinalis, DIGSA); test: as above; settings: phytotoxicity rating 0-100 (0 no damage, 100 complete death), 14 days after application
Outline: as §3

[17] = test system: redroot pigweed (Amaranthus retroflexus, AMARE); test: as above; settings: phytotoxicity rating 0-100 (0 no damage, 100 complete death), 14 days after application
Outline: as §3

[18] = test system: barnyardgrass (Echinochloa crus-galli, ECHCG); test: as above; settings: phytotoxicity rating 0-100 (0 no damage, 100 complete death), 14 days after application
Outline: as §3

[19] = test system: ivyleaf morningglory (Ipomoea hederacea, IPOHE); test: as above; settings: phytotoxicity rating 0-100 (0 no damage, 100 complete death), 14 days after application
Outline: as §3

[20] = test system: green foxtail (Setaria viridis, SETVI); test: as above; settings: phytotoxicity rating 0-100 (0 no damage, 100 complete death), 14 days after application
Outline: as §3

[21] = test system: lambsquarters (Chenopodium album, CHEAL); test: as above; settings: phytotoxicity rating 0-100 (0 no damage, 100 complete death), 14 days after application
Outline: as §3

[22] = test system: field corn (Zea mays L., var. Dekalb 535, CORN); test: Pre-emerge test, crop safety; settings: pre-emerge, rated 14 days after application, 0 = no damage, 100 = complete death
Outline: (§4)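 Fourteen days after spraying, crop and weed injury was graded visually from 0, no effect, to 100, every plant dead. Test substances were dissolved in acetone and applied at 15–1000 g ai/ha with a flat-fan nozzle. Application was either pre-emergence, one day after sowing, or post-emergence at the 2–3 leaf stage.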

[23] = test system: upland rice (Oryza sp., var. Tebonnet, RICE); test: Pre-emerge test, crop safety; settings: pre-emerge, rated 14 days after application, 0 = no damage, 100 = complete death
Outline: as §4

CCOc1c(Cl)cc(F)c(-n2c(=O)cc(C(F)(F)F)n(C)c2=O)c1N [Compound 1-61]
Pre-emerge Herbicidal Activity ABUTH (phytotoxicity rating, scale 0-100) ([1]; 63 g ai/ha): 100
Pre-emerge Herbicidal Activity ABUTH (phytotoxicity rating, scale 0-100) ([1]; 250 g ai/ha): 100
Pre-emerge Herbicidal Activity CASOB (phytotoxicity rating, scale 0-100) ([2]; 63 g ai/ha): 30
Pre-emerge Herbicidal Activity CASOB (phytotoxicity rating, scale 0-100) ([2]; 250 g ai/ha): 80
Pre-emerge Herbicidal Activity AMBEL (phytotoxicity rating, scale 0-100) ([3]; 63 g ai/ha): 60
Pre-emerge Herbicidal Activity AMBEL (phytotoxicity rating, scale 0-100) ([3]; 250 g ai/ha): 100
Pre-emerge Herbicidal Activity DIGSA (phytotoxicity rating, scale 0-100) ([4]; 63 g ai/ha): 40
Pre-emerge Herbicidal Activity DIGSA (phytotoxicity rating, scale 0-100) ([4]; 250 g ai/ha): 99
Pre-emerge Herbicidal Activity SORHA (phytotoxicity rating, scale 0-100) ([5]; 63 g ai/ha): 70
Pre-emerge Herbicidal Activity SORHA (phytotoxicity rating, scale 0-100) ([5]; 250 g ai/ha): 99
Pre-emerge Herbicidal Activity ECHCG (phytotoxicity rating, scale 0-100) ([6]; 63 g ai/ha): 75
Pre-emerge Herbicidal Activity ECHCG (phytotoxicity rating, scale 0-100) ([6]; 250 g ai/ha): 99
Pre-emerge Herbicidal Activity IPOHE (phytotoxicity rating, scale 0-100) ([7]; 63 g ai/ha): 60
Pre-emerge Herbicidal Activity IPOHE (phytotoxicity rating, scale 0-100) ([7]; 250 g ai/ha): 90
Pre-emerge Herbicidal Activity SETVI (phytotoxicity rating, scale 0-100) ([8]; 63 g ai/ha): 95
Pre-emerge Herbicidal Activity SETVI (phytotoxicity rating, scale 0-100) ([8]; 250 g ai/ha): 100
Pre-emerge Herbicidal Activity CHEAL (phytotoxicity rating, scale 0-100) ([9]; 63 g ai/ha): 100
Pre-emerge Herbicidal Activity CHEAL (phytotoxicity rating, scale 0-100) ([9]; 250 g ai/ha): 100
Post-emerge Herbicidal Activity CORN (crop damage) ([10]; 63 g ai/ha): 10
Post-emerge Herbicidal Activity CORN (crop damage) ([10]; 250 g ai/ha): 30
Post-emerge Herbicidal Activity RICE (crop damage) ([11]; 63 g ai/ha): 10
Post-emerge Herbicidal Activity RICE (crop damage) ([11]; 250 g ai/ha): 35
Pre-emerge Herbicidal Activity AMARE (phytotoxicity rating, scale 0-100) ([12]; 63 g ai/ha): 95
Pre-emerge Herbicidal Activity AMARE (phytotoxicity rating, scale 0-100) ([12]; 250 g ai/ha): 100
Post-emerge Herbicidal Activity ABUTH ([13]; 63 g ai/ha): 70
Post-emerge Herbicidal Activity ABUTH ([13]; 250 g ai/ha): 100
Post-emerge Herbicidal Activity CASOB ([14]; 63 g ai/ha): 60
Post-emerge Herbicidal Activity CASOB ([14]; 250 g ai/ha): 70
Post-emerge Herbicidal Activity AMBEL ([15]; 63 g ai/ha): 70
Post-emerge Herbicidal Activity AMBEL ([15]; 250 g ai/ha): 85
Post-emerge Herbicidal Activity DIGSA ([16]; 63 g ai/ha): 10
Post-emerge Herbicidal Activity DIGSA ([16]; 250 g ai/ha): 30
Post-emerge Herbicidal Activity AMARE ([17]; 63 g ai/ha): 50
Post-emerge Herbicidal Activity AMARE ([17]; 250 g ai/ha): 70
Post-emerge Herbicidal Activity ECHCG ([18]; 63 g ai/ha): 0
Post-emerge Herbicidal Activity ECHCG ([18]; 250 g ai/ha): 10
Post-emerge Herbicidal Activity IPOHE ([19]; 63 g ai/ha): 100
Post-emerge Herbicidal Activity IPOHE ([19]; 250 g ai/ha): 100
Post-emerge Herbicidal Activity SETVI ([20]; 63 g ai/ha): 10
Post-emerge Herbicidal Activity SETVI ([20]; 250 g ai/ha): 30
Post-emerge Herbicidal Activity CHEAL ([21]; 63 g ai/ha): 30
Post-emerge Herbicidal Activity CHEAL ([21]; 250 g ai/ha): 70
Pre-emerge crop damage CORN (phytotoxicity rating, scale 0-100) ([22]; 63 g ai/ha): 60
Pre-emerge crop damage CORN (phytotoxicity rating, scale 0-100) ([22]; 250 g ai/ha): 95
Pre-emerge crop damage RICE (phytotoxicity rating, scale 0-100) ([23]; 63 g ai/ha): 50
Pre-emerge crop damage RICE (phytotoxicity rating, scale 0-100) ([23]; 250 g ai/ha): 95
